In ChEMBL document CHEMBL1157539, “Thousands of chemical starting points for antimalarial lead identification” (Nature, 2010) one finds XC50 data, which are given here for 87 compounds.

The assay concerns Plasmodium falciparum. The assay can be described thus: GSK_TCMDC: Inhibition of Plasmodium falciparum 3D7 in whole erythrocytes, using parasite LDH activity as an index of growth. The assay is classed as functional, organism-based. Conditions: Plasmodium falciparum, 3D7.
As for `CC(C)(C)N1CCC(N(Cc2ccc(-c3ccc(C(F)(F)F)cc3)cc2)C(=O)Cn2c(CCc3cccc(F)c3F)cc(=O)c3ccccc32)CC1`, the XC50 amounted to 789 nM.
Regarding `C1=C(c2c[nH]c3ccccc23)CCN(Cc2ccccc2)C1`, the XC50 turned out to be 1040 nM.
On to `COc1ccc2nc3cc(Cl)ccc3c(NCCCCNc3c4ccc(Cl)cc4nc4ccc(OC)cc34)c2c1`, for which the XC50 came to 160 nM.
Compound `CCNc1cc(C(=O)N[C@@H](Cc2ccccc2)[C@H](O)CNC2C3CC4CC(C3)CC2C4)cc(N2CCCCS2(=O)=O)c1` (some centres not stated) returned an XC50 of 668 nM.
In turn, `COc1cccc(NC(=O)Nc2ccc(Nc3nc(C)cc(N(C)C)n3)cc2)c1` yielded an XC50 of 169 nM.
`Cc1cc(NCCCOc2ccc(Cl)cc2)nc(NCc2ccccc2)n1` displayed an XC50 of 782 nM.
Regarding `Cc1cnc(NCC2CCCCC2)nc1N[C@@H](CC(C)C)C(=O)Nc1ccccc1`, the XC50 worked out at 869 nM.
In turn, `Cc1[nH]c(C)c(-c2ccc(Oc3ccc(O)cc3)cc2)c(=O)c1Cl` displayed an XC50 of 1040 nM.
On to `CCCCCCCN1CCC(CCNc2ccnc3ccc(OC)cc23)CC1`, for which the XC50 was 955 nM.
In turn, `Cn1cncc1C(=O)Nc1cccc(-c2cccc(-c3nc4cc(F)ccc4[nH]3)c2)c1` came in with an XC50 of 493 nM.
In turn, `COc1nc(-n2ccc(=N)cc2)nc2ccccc12` had an XC50 of 1060 nM.
Take `O=C(Nc1ccc(Cl)cc1)c1cccc2nc(C(F)(F)F)[nH]c12`: the XC50 was 764 nM.
Compound `FC(F)(F)c1ccc2[nH]c(-c3ccc(-c4cccc(CN5CCN(CCN6CCOCC6)CC5)c4)cc3)nc2c1` registered an XC50 of 160 nM.
With `CCCNCc1ccc(-c2ccc(CN(CCOC)C(=O)[C@H]3CCCO3)cc2)nc1`, the XC50 came out at 745 nM.
`O=C(/C=C/c1ccc(Cl)c(Cl)c1)NCCCCCN1CCC(NC(=O)Nc2cccc(F)c2)CC1` yielded an XC50 of 769 nM.
`Cc1cc(C)n(Cc2ccc(C(=O)NCC3CCCCC3)cc2)n1` returned an XC50 of 957 nM.
Compound `Cc1cc(Cl)ccc1N(Cc1ccccc1)c1ccnc(Cl)n1` had an XC50 of 859 nM.
On to `COc1ccc(C=NN=c2cc(C)[nH]c3c(C)cccc23)c2ccccc12`, for which the XC50 was found to be 224 nM.
In turn, `COc1c(C2CCN(CCCCNC(=O)c3ccc(-c4ccc(C#N)cc4)nc3)CC2)ccc2c1CCCC2` came in with an XC50 of 530 nM.
`CCN(CC)CCCC(C)Nc1c2ccccc2nc2c1ccc1ccccc12` (configuration not stated): the XC50 came out at 1090 nM.
`N=C(N)NN=Cc1ccc2c(c1)Cc1ccccc1-2`: the XC50 worked out at 586 nM.
Take `COc1cc(CNCCC(C)C)ccc1OCc1cccc(COc2ccc(CNCCC(C)C)cc2OC)c1`: the XC50 worked out at 492 nM.
`CNC(=O)c1ccccc1Nc1nc(Nc2ccc(N3CCN(C)CC3)nc2)ncc1C` yielded an XC50 of 1140 nM.
`C[C@@H]([C@@H](CCCc1ccc(Cl)cc1)C(=O)N[C@H](C(=O)Nc1cccnc1)C(C)(C)C)N(O)C=O` came in with an XC50 of 719 nM.
`FC(F)(F)c1cccc(CNCC2CCN(CC3CCCCC3)CC2)c1` yielded an XC50 of 402 nM.
Compound `COc1cc2c(cc1N1CCN(C)CC1)N(C(=O)Nc1ccc(-c3ccncc3)c(Cl)c1Cl)CC2` displayed an XC50 of 608 nM.
For the compound `FC(F)(F)c1cc(CNCCCNc2nc3ccncc3[nH]2)ccc1Cl`, the XC50 stood at 1010 nM.
The same measure for `Cc1ccc(NC(=O)NC2CCN(CCC(NC(=O)Cc3ccccc3)c3ccc(Cl)c(Cl)c3)CC2)cc1` (configuration not stated): 619 nM; for `CCOc1cc(C(=O)NC2CCN(Cc3ccccc3)CC2)ccc1-c1nc2cc(Cl)c(F)cc2[nH]1`: 802 nM.
`CC1(C)N=C(N)N=C(N)N1OCc1cccc2c1ccc1ccccc12` returned an XC50 of 3.2 nM.
Regarding `O=C(NCCc1cccc(Cl)c1Cl)c1cnc(N2CCN(c3ccncc3)CC2)c(Cl)c1`, the XC50 was 702 nM.
As for `CN(C)c1ccc(CN2CCC(CNC(=O)c3cc(-c4cccc(C(F)(F)F)c4)cs3)C2)cc1` (configuration not stated), the XC50 is 882 nM.
The same measure for `CCCC(=O)Nc1ccc(Cl)c(NC(=O)COc2cc(C)ccc2C(C)C)c1`: 933 nM.
The same measure for `c1ccc2cc3c(NCCN4CCOCC4)ccnc3cc2c1`: 168 nM; for `CC(O)C1CCCCN1C(=O)c1cccc(-c2ccc(-c3nc4cc(C(F)(F)F)ccc4[nH]3)cc2)c1` (configuration not stated): 690 nM; for `CC1(C)N=C(N)N=C(N)N1c1cccc(C(F)(F)F)c1`: 8.62 nM.
For the compound `Cc1cc(N[C@@H](Cc2ccccc2)C(=O)NCCc2ccccc2)nc(NCCc2cccs2)n1`, the XC50 came to 713 nM.
As for `O=C(/C=C/c1ccc(Cl)c(Cl)c1)N1CCC(CCN2CCC(c3c[nH]c4cc5c(cc34)OCO5)CC2)CC1`, the XC50 turned out to be 732 nM.
On to `O=S(=O)(Nc1cccc(CCN2CCCCC2CCN2CCCC2)c1)c1ccc(-c2ccccc2)cc1` (configuration not stated), for which the XC50 stood at 1090 nM.
Regarding `Cc1cccc(Nc2nc(NCCCCN)nc3cc[nH]c(=O)c23)c1`, the XC50 came out at 733 nM.
`COc1ccc2c(=NN=Cc3c(OC)ccc4ccccc34)cc(C)[nH]c2c1` returned an XC50 of 777 nM.
Regarding `N#Cc1ccc(N/C(=N\c2ccc(-c3ccccc3)cc2)NCc2cccnc2)c(O)c1`, the XC50 is 813 nM.
The compound `O=C(Nc1cccc(-c2csc(-c3nc4ccccc4[nH]3)c2)c1)c1cccnc1` displayed an XC50 of 230 nM.
Compound `CN1CCN(c2ccnc3cc4c(cc23)N(C(=O)Nc2ccc3c(c2)CCCC3=O)CC4)CC1` gave an XC50 of 623 nM.
In turn, `O=C(NCCCN1CCN(c2cccc(Cl)c2)CC1)c1ccc(-c2nc3cc(Cl)c(Cl)cc3[nH]2)c(F)c1` had an XC50 of 826 nM.
As to `Cc1cc(Nc2ccc(OCc3ccccc3Cl)cc2)c2cc(Cl)ccc2n1`, the XC50 was found to be 433 nM.
Turning to `CC(C)CCN1CCCN(Cc2ccc(C(=O)NCc3ccc(Cl)cc3)cc2)CC1`, the XC50 was 1010 nM.
Compound `CCn1c2c(c(=N)c3ccccc31)CCC2` displayed an XC50 of 505 nM.
Turning to `COc1ccc2[nH]cc(C3CCN(Cc4ccc(NC(=O)c5ccc(-c6ccccc6)cc5)cc4)CC3)c2c1`, the XC50 was determined as 765 nM.
For `CC(C)c1ccc(CN2CCC(CNC(=O)c3cc(-c4cccc(F)c4)cs3)C2)cc1` (configuration not stated), the XC50 is 1660 nM.
For `CC(C)CCNCC(O)Cn1c2ccc(Cl)cc2c2cc(Cl)ccc21` (configuration not stated) the value was 447 nM; for `CN(C)Cc1ccc(-c2cccc(Nc3nccc(NCC(O)c4ccccc4)n3)c2)cc1` (configuration not stated), 373 nM.
On to `CCCC(C)NC(=O)[C@H](CC1CCCCC1)NC(=O)c1ccc(O)c(-c2ccc(OC)cc2)c1` (some centres not stated), for which the XC50 was 1130 nM.
For the compound `Cc1ccccc1CNc1noc(-c2c(F)cccc2Cl)n1`, the XC50 amounted to 722 nM.
With `COc1ccc(Nc2nc(N)c3cc(OC)c(OC)cc3n2)cc1OC`, the XC50 came out at 732 nM.
In turn, `CCOc1ccc(-c2nc(NC(=O)COc3ccc(OC)cc3)sc2C)cc1` had an XC50 of 541 nM.
For the compound `CC[C@H](C)CNC(=O)c1cncc(-c2ccc(CNC3Cc4ccccc4C3)cc2)c1`, the XC50 is 829 nM.
For the compound `COc1ccc2ncc(F)c(CCN3C[C@H](CNCc4cc(C#N)c5c(c4)OCCO5)[C@H](O)C3)c2n1`, the XC50 was 582 nM.
For `Cc1nc(NCCc2c[nH]cn2)cc(NCc2ccccc2)n1` the value was 833 nM; for `Cc1ccccc1C1CCN(c2ncc(C(=O)NC3CC3)cc2Cl)CC1`, 697 nM.
The compound `COc1ccc2nccc(N3CCCN(CCNS(=O)(=O)c4ccc5c(c4)NC(=O)CS5)CC3)c2n1` had an XC50 of 824 nM.
The same measure for `CN1CCCC(CN2CCN(Cc3cccc(-c4ccc(-c5nc6cc(C(F)(F)F)ccc6[nH]5)cc4)c3)CC2)C1` (configuration not stated): 145 nM; for `CC(Cc1ccc(C(=O)OCCOC(=O)c2ccc(CC(C)NCC(O)c3cccc(C(F)(F)F)c3)cc2)cc1)NCC(O)c1cccc(C(F)(F)F)c1` (configuration not stated): 820 nM.
In turn, `O=C(Cc1c[nH]cn1)Nc1cccc(-c2ccc(-c3nc4cc(C(F)(F)F)ccc4[nH]3)s2)c1` had an XC50 of 773 nM.
Compound `CC(=O)N/N=C/[C@H](CCc1ccccc1)NC(=O)[C@H](CC(C)C)NC(=O)c1ccc(OCCN2CCOCC2)cc1` returned an XC50 of 222 nM.
For `COc1ccc(NC(=O)C2c3ccccc3C(=O)N(C3CCCC3)C2c2cccs2)c(OC)c1` (configuration not stated) the value was 1480 nM; for `C[C@@H](C(=O)N1CCOCC1)N1CC[C@H](NS(=O)(=O)c2ccc3ccnc(N)c3c2)C1=O`, 1500 nM.
The compound `OC(CNC12CC3CC(CC(C3)C1)C2)c1cccc(C(F)(F)F)c1` (configuration not stated) displayed an XC50 of 301 nM.
In the case of `CC[C@H]1CN2CC[C@H]1C[C@H]2[C@H](O)c1cc(/C=C/c2ccc(F)cc2)nc2ccc(OC)cc12`, the XC50 is 28.1 nM.
Compound `CC(C)CNCc1ccc(-c2cccc(-c3nc4ccccc4[nH]3)c2)cc1` had an XC50 of 626 nM.
For the compound `CCCCNCc1ccc(-c2nc(CN(Cc3ccc(Cl)c(Cl)c3)C(=O)CN(C)C)cs2)cc1`, the XC50 turned out to be 805 nM.
For `N=C1SC(=Cc2cn[nH]c2-c2ccc(F)cc2)C(=O)N1c1nccs1`, the XC50 came out at 225 nM.
As to `COc1ccc2nc(-c3ccc(C(=O)NCCCN4CCN(c5cc(Cl)ccc5OC)CC4)cc3)[nH]c2c1`, the XC50 is 772 nM.
The compound `Oc1ccc2ccccc2c1CNCCC1CCCCC1` registered an XC50 of 174 nM.
Turning to `COc1ccc(-c2cccc(NC(=O)c3ccc(Cl)cc3)c2)cc1CN1CCC(O)CC1`, the XC50 is 791 nM.
For `CCNc1cc(C(=O)N[C@@H](Cc2ccccc2)[C@H](O)CN[C@H](C)C(C)(C)C)cc(N2CCCCS2(=O)=O)c1` the value was 820 nM; for `O=C(NCCCCN1CCC(c2ccc(C(F)(F)F)cc2C(F)(F)F)CC1)c1ccc(NC(=O)c2ccc(Cl)cc2)cc1`, 613 nM.
In turn, `Cc1cc(NC(=O)c2cc(S(=O)(=O)N3CCCCC3)ccc2C)no1` yielded an XC50 of 725 nM.
For `CCNc1cc(C(=O)N[C@@H](Cc2ccccc2)[C@H](O)CNC2(C)CCCCC2)cc(N2CCCCS2(=O)=O)c1`, the XC50 amounted to 156 nM.
`COc1ccc(CCCN2C(=O)C(c3ccccc3)(c3ccccc3)N=C2N)cc1` showed an XC50 of 1050 nM.
As to `Cc1c(F)cc(C(=O)NC2CC2)cc1-c1ccc2c(cnn2S(=O)(=O)c2cccs2)c1`, the XC50 was 862 nM.
`CN1CCN(CCc2ccc(N/C=C3\C(=O)Nc4ccc5ncccc5c43)cc2)CC1` showed an XC50 of 325 nM.
For the compound `Nc1c(C(=O)NCCCCN2CCN(c3nsc4ccccc34)CC2)sc2ccccc12`, the XC50 amounted to 1320 nM.
Compound `CCCNC(=O)c1cncc(-c2ccc(CNC(CC)c3ccccc3)cc2)c1` (configuration not stated) gave an XC50 of 876 nM.
On to `CCOC(=O)N1CCN(CCCNc2c3ccc(Cl)cc3nc3ccc(OC)cc23)CC1`, for which the XC50 was 104 nM.
The compound `Cc1c(C)n(C2CCCC2)c2ncnc(OC3CCN(CC(=O)NCC4CC4)CC3)c12` returned an XC50 of 891 nM.
For the compound `CCN(CC)CC(O)Cc1c2ccc([N+](=O)[O-])cc2nc2cc(OC)c(OC)cc12` (configuration not stated), the XC50 stood at 739 nM.
